Here are results for 20 compounds from ChEMBL document CHEMBL4368936, “Discovery and structure-activity relationship study of phthalimide-phenylpyridine conjugate as inhibitor of Wnt pathway” (Bioorg Med Chem Lett, 2019).

The species entered for one test is Mus musculus. Description: Inhibition of Wnt/beta-catenin pathway in mouse L Wnt3A cells at 10 uM after 48 hrs by TOP-flash dual reporter gene assay relative to control. It counts as cell-based.
A short description of test [1]: Inhibition of Wnt/beta-catenin pathway in mouse L Wnt3A cells after 48 hrs by TOP-flash dual reporter gene assay. The following applies: L Wnt-3A. It counts as cell-based. (In general: In a reporter assay the amount or activity of a reporter protein is the signal.)

Regarding `CC(C)(C)c1ccc2c(c1)C(=O)N(CCCC(=O)Nc1ccc(-c3ccccc3)cn1)C2=O`, the inhibition (commonly the relative decrease from the control value, in per cent) in the test filed under Mus musculus turned out to be 23%.

In the case of `Cc1cc(-c2ncc(CC(=O)Nc3ccc(-c4cnccn4)cn3)cc2C)ccn1` [WNT-974], the IC50 (commonly the concentration that gives 50% inhibition) in test [1] is 0.00057 µM. For the same compound, the inhibition in the test listed under Mus musculus worked out at 93%.

`O=C(CCCN1C(=O)c2cccc(Cl)c2C1=O)Nc1ccc(-c2ccccc2)cn1`: the inhibition in the test filed under Mus musculus amounted to 46%.

As to `O=C(CCCN1C(=O)c2ccc(C#Cc3ccccc3)cc2C1=O)Nc1ccc(-c2ccccc2)cn1`, the inhibition in the test listed under Mus musculus amounted to 7%.

`Cc1cccc2c1C(=O)N(CC(=O)Nc1ccc(-c3ccccc3)cn1)C2=O` registered an IC50 in test [1] of 0.28 µM. For the same compound, the inhibition in the test filed under Mus musculus amounted to 76%.

As for `O=C(CCCN1C(=O)c2cc(Cl)c(Cl)cc2C1=O)Nc1ccc(-c2ccccc2)cn1`, the inhibition in the test filed under Mus musculus is -8%.

Take `Cc1cccc2c1C(=O)N(C(C)C(=O)Nc1ccc(-c3ccccc3)cn1)C2=O` (stereo not given): the IC50 in test [1] was > 10 µM. Also, the inhibition in the test listed under Mus musculus worked out at 39%.

`O=C(CCCN1C(=O)c2c(Cl)c(Cl)c(Cl)c(Cl)c2C1=O)Nc1ccc(-c2ccccc2)cn1`: in the test filed under Mus musculus, the inhibition is -5%.

Turning to `O=C(CCCN1C(=O)c2ccc(F)cc2C1=O)Nc1ccc(-c2ccccc2)cn1`, in the test listed under Mus musculus, the inhibition came out at 20%.

Regarding `O=C(CCCN1C(=O)c2cccc([N+](=O)[O-])c2C1=O)Nc1ccc(-c2ccccc2)cn1`, the inhibition in the test filed under Mus musculus was determined as 17%.

Regarding `O=C(CCCN1C(=O)c2ccc(F)c(F)c2C1=O)Nc1ccc(-c2ccccc2)cn1`, in the test filed under Mus musculus, the inhibition is 21%.

`O=C(CCCN1C(=O)c2cccc(F)c2C1=O)Nc1ccc(-c2ccccc2)cn1`: the inhibition in the test filed under Mus musculus is 44%.

Consider `O=C(CCCN1C(=O)c2ccccc2C1=O)Nc1ccc(-c2ccccc2)cn1`, for which the inhibition in the test listed under Mus musculus came to 34%.

For the compound `O=C(CCCN1C(=O)c2ccc(Br)cc2C1=O)Nc1ccc(-c2ccccc2)cn1`, the inhibition in the test filed under Mus musculus turned out to be 18%.

Take `Cc1cccc2c1C(=O)N(CCC(=O)Nc1ccc(-c3ccccc3)cn1)C2=O`: the IC50 in test [1] was > 10 µM. Besides, the inhibition in the test filed under Mus musculus was found to be 29%.

For the compound `O=C(CCCN1C(=O)c2c(F)ccc(F)c2C1=O)Nc1ccc(-c2ccccc2)cn1`, the inhibition in the test filed under Mus musculus turned out to be 37%.

Regarding `O=C(CCCN1C(=O)c2ccc([N+](=O)[O-])cc2C1=O)Nc1ccc(-c2ccccc2)cn1`, in the test filed under Mus musculus, the inhibition was determined as 19%.

As to `Cc1ccc2c(c1)C(=O)N(CCCC(=O)Nc1ccc(-c3ccccc3)cn1)C2=O`, the inhibition in the test listed under Mus musculus stood at 20%.

In test [1], `Cc1cccc2c1C(=O)N(CCCC(=O)Nc1ccc(-c3ccccc3)cn1)C2=O` came in with an IC50 of 2.79 µM. The inhibition in the test listed under Mus musculus was found to be 61%.

For the compound `O=C(CCCN1C(=O)c2ccc(Cl)cc2C1=O)Nc1ccc(-c2ccccc2)cn1`, in the test listed under Mus musculus, the inhibition is 22%.
